Measured values as given in US20220402948A1, “EGFR INHIBITOR, COMPOSITION AND PREPARATION METHOD THEREFOR” (BETTA PHARMACEUTICALS CO., LTD., priority 2019, published 2022).
Read-outs that look alike come from different tables or passages of the source.

Columns and labels:
EGFRΔ19del/T790M/C797S = EGFRΔ19del/T790M/C797S (Homo sapiens, UniProt P00533, T790M/C797S, form not given); assay: EGFR Δ19del/T790M/C797S kinase test (mobility variation analysis, Caliper EZ Reader); type: biochemical; details: kinase enzymatic activity, Table 1
Method in brief: (§1)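 Kinase pre-incubated with compound 10 minutes at room temperature, then ATP plus peptide substrate added; substrate conversion read by mobility shift after stop solution. Percent inhibition normalized to no-compound and no-enzyme controls; IC50 from variable-slope log(inhibitor) fit.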

EGFR WT = EGFR WT (Homo sapiens, UniProt P00533); assay: EGFR WT kinase test (mobility variation analysis, Caliper EZ Reader); type: biochemical; details: kinase enzymatic activity, Table 1
Method in brief: as §1

IGF1R = IGF1R (Homo sapiens, UniProt P08069); assay: IGF1R kinase test (mobility variation analysis, Caliper EZ Reader); type: biochemical; details: kinase enzymatic activity, Table 1; read-out: EGFR IGF1R IC50
Method in brief: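 Kinase preincubated 10 min at room temperature with compound (10-point 3-fold series, top 3000 nM), then ATP and substrate added and reacted at room temperature. Substrate conversion read by mobility-shift (Caliper EZ Reader); % inhibition vs no-enzyme and no-compound controls fitted to variable-slope curve for IC50.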

[1] = target: Ba/F3 cells with EGFR Δ19del/T790M/C797S mutation gene stably overexpressed (Homo sapiens, UniProt P00533, T790M/C797S, cells depend on it, form not given); assay: Ba/F3-Δ19del/T790M/C797S cell proliferation assay (CellTiter Glo, 72 hours); type: cell-based; details: Table 2, read-out: EGFR Δ19del/T790M/C797S IC50
Method in brief: (§2)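 Ba/F3 cells stably overexpressing wild-type EGFR or EGFR Δ19del/T790M/C797S were seeded at 2000 cells/well and incubated 72 h with compound. Viability was read by CellTiter-Glo luminescence, and IC50 came from a four-parameter logistic fit of signal against log concentration.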

[2] = target: Ba/F3-EGFR wild-type cell line (Homo sapiens, UniProt P00533); assay: Ba/F3-EGFR wild-type cell proliferation assay (CellTiter Glo, 72 hours); type: cell-based; details: Table 2, read-out: EGFR WT IC50
Method in brief: as §2

A431 = A431 cell proliferation assay (CellTiter Glo, 72 hours); type: cell-based; details: cell proliferation, A431, 72 hours, Table 2, read-out: A431 IC50
Method in brief: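 A431 cells (2000/well) exposed 72 h to compound at 1000 nM down to 0.2 nM in 3-fold steps, 0.1% DMSO (0.5% for some series). Viability by CellTiter-Glo luminescence; IC50 by four-parameter nonlinear regression.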

Chain of EGFR WT (P00533 25-1210): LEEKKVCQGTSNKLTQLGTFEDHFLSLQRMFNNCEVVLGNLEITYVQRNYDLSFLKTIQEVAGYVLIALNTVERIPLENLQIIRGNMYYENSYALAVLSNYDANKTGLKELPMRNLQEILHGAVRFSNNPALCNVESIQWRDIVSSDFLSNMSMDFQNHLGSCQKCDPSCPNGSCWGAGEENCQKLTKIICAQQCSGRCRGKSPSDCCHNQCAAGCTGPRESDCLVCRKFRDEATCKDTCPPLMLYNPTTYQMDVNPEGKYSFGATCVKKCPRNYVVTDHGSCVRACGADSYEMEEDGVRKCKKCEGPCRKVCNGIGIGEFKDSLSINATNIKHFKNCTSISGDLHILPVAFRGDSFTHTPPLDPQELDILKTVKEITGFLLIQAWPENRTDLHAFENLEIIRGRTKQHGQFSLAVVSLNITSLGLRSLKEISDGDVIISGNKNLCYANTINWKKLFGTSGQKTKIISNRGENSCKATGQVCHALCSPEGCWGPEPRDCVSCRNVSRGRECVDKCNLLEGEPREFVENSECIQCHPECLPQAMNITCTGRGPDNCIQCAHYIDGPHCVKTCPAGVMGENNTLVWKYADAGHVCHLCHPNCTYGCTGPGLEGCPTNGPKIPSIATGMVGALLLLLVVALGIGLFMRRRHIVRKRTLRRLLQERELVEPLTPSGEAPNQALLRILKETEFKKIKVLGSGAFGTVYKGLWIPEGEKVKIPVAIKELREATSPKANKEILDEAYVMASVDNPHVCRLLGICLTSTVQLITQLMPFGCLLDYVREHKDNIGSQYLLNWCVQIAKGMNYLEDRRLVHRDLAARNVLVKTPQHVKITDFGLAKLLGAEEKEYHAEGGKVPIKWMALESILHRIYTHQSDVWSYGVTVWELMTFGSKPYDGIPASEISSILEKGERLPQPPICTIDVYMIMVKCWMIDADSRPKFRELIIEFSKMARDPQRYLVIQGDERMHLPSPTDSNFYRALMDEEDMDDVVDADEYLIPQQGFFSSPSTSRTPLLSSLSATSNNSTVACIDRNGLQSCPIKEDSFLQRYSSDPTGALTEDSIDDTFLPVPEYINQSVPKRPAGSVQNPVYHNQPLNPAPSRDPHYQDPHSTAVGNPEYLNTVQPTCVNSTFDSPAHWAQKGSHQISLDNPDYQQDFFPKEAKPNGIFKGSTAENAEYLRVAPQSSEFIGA
Chain of Ba/F3-EGFR wild-type cell line (P00533 whole entry, change not shown): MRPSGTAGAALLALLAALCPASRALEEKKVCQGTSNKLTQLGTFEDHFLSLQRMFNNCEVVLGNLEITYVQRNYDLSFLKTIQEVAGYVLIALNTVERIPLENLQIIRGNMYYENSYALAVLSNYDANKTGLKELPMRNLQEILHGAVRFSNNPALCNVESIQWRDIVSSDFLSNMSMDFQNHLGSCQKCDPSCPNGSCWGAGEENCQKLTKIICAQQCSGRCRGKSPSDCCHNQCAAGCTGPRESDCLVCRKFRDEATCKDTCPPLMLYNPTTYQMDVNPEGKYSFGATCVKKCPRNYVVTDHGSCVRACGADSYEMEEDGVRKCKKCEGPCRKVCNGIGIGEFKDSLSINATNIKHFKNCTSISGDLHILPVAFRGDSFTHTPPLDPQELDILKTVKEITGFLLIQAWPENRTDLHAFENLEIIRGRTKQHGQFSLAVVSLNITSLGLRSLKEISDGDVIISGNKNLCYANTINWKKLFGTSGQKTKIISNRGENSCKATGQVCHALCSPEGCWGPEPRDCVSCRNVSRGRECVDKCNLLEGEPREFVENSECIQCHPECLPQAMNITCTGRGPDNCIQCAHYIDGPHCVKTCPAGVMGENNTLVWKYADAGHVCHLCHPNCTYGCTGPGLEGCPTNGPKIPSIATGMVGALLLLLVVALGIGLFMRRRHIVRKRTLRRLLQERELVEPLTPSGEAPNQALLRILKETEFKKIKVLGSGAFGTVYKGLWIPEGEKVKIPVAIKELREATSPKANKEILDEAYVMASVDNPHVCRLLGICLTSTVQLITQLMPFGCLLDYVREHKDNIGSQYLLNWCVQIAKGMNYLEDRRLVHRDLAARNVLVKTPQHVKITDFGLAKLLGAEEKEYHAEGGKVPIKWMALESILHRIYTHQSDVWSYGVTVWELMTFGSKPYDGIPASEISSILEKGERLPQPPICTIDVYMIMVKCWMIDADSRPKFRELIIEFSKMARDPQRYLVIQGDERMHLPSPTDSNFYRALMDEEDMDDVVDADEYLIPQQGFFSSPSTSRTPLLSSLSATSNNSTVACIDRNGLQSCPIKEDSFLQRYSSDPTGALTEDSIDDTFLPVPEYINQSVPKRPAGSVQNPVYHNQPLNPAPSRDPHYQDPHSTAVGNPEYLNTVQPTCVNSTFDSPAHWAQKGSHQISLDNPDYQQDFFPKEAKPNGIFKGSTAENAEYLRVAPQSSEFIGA
Chain of IGF1R (P08069 31-1367, species assumed): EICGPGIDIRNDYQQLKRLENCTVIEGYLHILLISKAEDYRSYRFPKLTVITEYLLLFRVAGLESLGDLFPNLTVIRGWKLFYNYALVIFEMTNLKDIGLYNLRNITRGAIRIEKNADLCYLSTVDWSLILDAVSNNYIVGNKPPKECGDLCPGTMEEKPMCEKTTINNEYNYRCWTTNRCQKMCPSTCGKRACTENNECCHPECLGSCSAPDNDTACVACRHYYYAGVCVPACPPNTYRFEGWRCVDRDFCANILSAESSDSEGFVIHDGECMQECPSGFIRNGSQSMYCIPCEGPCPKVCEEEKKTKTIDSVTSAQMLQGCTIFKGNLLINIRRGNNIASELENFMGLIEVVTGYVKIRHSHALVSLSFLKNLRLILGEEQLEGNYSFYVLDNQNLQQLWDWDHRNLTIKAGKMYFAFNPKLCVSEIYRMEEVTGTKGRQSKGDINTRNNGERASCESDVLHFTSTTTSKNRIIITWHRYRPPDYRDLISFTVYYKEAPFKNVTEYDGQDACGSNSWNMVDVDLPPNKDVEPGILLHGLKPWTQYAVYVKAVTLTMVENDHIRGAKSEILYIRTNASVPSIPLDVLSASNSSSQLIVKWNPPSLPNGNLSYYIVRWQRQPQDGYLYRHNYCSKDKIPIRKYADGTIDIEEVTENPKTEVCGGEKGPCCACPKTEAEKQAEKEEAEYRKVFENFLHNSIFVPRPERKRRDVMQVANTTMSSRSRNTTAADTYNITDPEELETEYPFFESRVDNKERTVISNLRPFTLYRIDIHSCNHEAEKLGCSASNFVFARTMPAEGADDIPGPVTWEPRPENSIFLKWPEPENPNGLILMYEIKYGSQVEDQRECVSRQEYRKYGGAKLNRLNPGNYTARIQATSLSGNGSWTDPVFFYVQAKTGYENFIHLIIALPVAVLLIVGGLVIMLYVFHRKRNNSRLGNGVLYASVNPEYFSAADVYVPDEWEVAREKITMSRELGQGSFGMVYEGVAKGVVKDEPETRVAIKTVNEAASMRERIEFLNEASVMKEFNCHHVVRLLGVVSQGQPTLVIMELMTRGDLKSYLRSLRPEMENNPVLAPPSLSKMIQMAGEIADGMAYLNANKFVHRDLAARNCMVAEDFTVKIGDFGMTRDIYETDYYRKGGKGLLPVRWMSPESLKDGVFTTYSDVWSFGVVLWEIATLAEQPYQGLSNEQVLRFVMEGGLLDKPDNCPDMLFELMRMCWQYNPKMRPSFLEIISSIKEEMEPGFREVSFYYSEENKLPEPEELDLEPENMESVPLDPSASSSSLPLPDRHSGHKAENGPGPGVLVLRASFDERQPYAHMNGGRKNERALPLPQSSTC
Chain of EGFRΔ19del/T790M/C797S (P00533 with tags, fused parts or gaps DEL746-750/T790M/C797S, form open): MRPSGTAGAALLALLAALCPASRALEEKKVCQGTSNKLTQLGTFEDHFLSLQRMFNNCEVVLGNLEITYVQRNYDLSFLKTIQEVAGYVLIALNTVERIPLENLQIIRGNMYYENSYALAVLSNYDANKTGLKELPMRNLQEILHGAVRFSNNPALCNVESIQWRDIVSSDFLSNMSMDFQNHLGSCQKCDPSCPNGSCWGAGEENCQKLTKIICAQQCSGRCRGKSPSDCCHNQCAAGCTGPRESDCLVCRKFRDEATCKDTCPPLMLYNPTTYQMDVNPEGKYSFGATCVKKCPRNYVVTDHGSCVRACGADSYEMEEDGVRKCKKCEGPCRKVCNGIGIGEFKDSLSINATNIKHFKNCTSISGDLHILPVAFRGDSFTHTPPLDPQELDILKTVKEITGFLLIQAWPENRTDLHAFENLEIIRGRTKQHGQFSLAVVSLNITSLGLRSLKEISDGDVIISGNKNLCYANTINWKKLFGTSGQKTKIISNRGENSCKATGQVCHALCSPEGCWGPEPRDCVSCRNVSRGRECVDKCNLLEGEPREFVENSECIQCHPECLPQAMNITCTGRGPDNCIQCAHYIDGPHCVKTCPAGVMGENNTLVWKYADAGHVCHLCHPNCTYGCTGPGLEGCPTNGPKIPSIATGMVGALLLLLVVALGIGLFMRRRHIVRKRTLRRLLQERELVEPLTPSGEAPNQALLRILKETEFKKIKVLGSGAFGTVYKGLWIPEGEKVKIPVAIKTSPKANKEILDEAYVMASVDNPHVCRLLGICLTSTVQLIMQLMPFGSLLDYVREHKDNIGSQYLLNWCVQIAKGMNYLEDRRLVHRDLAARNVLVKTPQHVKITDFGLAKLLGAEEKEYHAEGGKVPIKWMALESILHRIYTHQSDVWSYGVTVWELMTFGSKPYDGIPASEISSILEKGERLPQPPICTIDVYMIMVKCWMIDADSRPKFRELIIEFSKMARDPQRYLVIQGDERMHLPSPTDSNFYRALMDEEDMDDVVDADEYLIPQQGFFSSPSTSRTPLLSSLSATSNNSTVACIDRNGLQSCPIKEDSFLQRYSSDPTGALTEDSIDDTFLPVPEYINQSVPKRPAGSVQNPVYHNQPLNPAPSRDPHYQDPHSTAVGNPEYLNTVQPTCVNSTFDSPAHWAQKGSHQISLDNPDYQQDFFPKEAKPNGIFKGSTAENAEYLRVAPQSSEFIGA

Row | SMILES | IC50 (EGFRΔ19del/T790M/C797S) | IC50 (EGFR WT) | IC50 (IGF1R) | GI50 [1] | GI50 [2] | IC50 (A431; Homo sapiens, A-431, 72 h) | IC50 (A431)
1 | CCc1cc(Nc2ncc(Br)c(Nc3ccc(-n4cc(F)cn4)cc3P(C)(C)=O)n2)c(OC)cc1N1CCC(N2CCN(C)CC2)CC1 [Compound 44, (2-((5-Bromo-2-((5-ethyl-2-methoxy-4-(4-(4-methylpiperazin-1-yl)piperidin-1-yl)phenyl)amino)pyrimidin-4-yl)amino)-5-(4-fluoro-1H-pyrazol-1-yl)phenyl)dimethylphosphine oxide] | 0.2 nM | 11.5 nM | 124 nM | 9.5 nM | 166 nM | 2380 nM | 
2 | CCc1cc(Nc2ncc(Br)c(Nc3ccc(-n4cc(OC)cn4)cc3P(C)(C)=O)n2)c(OC)cc1N1CCC(N2CCN(C)CC2)CC1 [Compound K-054, (2-((5-Bromo-2-((5-ethyl-2-methoxy-4-(4-(4-methylpiperazin-1-yl)piperidin-1-yl)phenyl)amino)pyrimidin-4-yl)amino)-5-(4-methoxy-1H-pyrazol-1-yl)phenyl)dimethylphosphine oxide] | 0.2 nM | 32 nM | 268 nM | 19.1 nM | 343 nM | 1510 nM | 
3 | CCc1cc(Nc2ncc(Br)c(Nc3ccc(-n4cc(C)cn4)cc3P(C)(C)=O)n2)c(OC)cc1N1CCC(N2CCN(C)CC2)CC1 [Compound K-069, (2-((5-Bromo-2-((5-ethyl-2-methoxy-4-(4-(4-methylpiperazin-1-yl)piperidin-1-yl)phenyl)amino)pyrimidin-4-yl)amino)-5-(4-methyl-1H-pyrazol-1-yl)phenyl)dimethylphosphine oxide] | 0.67 nM | 26.7 nM | 219 nM | 37.4 nM | 355 nM |  | 1610 nM
4 | COc1cc(Nc2ncc(Br)c(Nc3ccc(-c4cnccn4)cc3P(C)(C)=O)n2)c(C)cc1N1CCC(N2CCN(C)CC2)CC1 [Compound K-017, (2-((5-Bromo-2-((5-methoxy-2-methyl-4-(4-(4-methylpiperazin-1-yl)piperidin-1-yl)phenyl)amino)pyrimidin-4-yl)amino)-5-(pyrazin-2-yl)phenyl)dimethylphosphine oxide] | 0.5 nM | 14.4 nM | 39.1 nM | 12 nM | 445 nM | 812 nM | 

Continued by falling IC50 (EGFRΔ19del/T790M/C797S), values first:

Row | IC50 (EGFRΔ19del/T790M/C797S) | IC50 (EGFR WT) | IC50 (IGF1R) | GI50 [1] | GI50 [2] | IC50 (A431; Homo sapiens, A-431, 72 h) | IC50 (A431) | SMILES
5 | 0.5 nM | 14.2 nM | 30.2 nM | 4.3 nM | 127 nM | 456 nM |  | CCCc1cc(Nc2ncc(Br)c(Nc3ccc(-c4cnn(C)c4)cc3P(C)(C)=O)n2)c(OC)cc1N1CCC(N2CCN(C)CC2)CC1 [Compound K-043, (2-((5-Bromo-2-((2-methoxy-4-(4-(4-methylpiperazin-1-yl)piperidin-1-yl)-5-propylphenyl)amino)pyrimidin-4-yl)amino)-5-(1-methyl-1H-pyrazol-4-yl)phenyl)dimethylphosphine oxide]
6 | 0.5 nM | 32.5 nM | 50.5 nM | 7.6 nM | 56 nM | 816 nM |  | C#Cc1cnc(-c2ccc(Nc3nc(Nc4cc(OC)c(N5CCC(N6CCN(C)CC6)CC5)cc4C)ncc3Br)c(P(C)(C)=O)c2)cn1 [Compound K-014, (2-((5-Bromo-2-((5-methoxy-2-methyl-4-(4-(4-methylpiperazin-1-yl)piperidin-1-yl)phenyl)imino)pyrimidin-4-yl)amino)-5-(5-ethynylpyrazin-2-yl)phenyl)dimethylphosphine oxide]
7 | 0.3 nM | 42.8 nM | 48.7 nM | 18.6 nM | 146 nM | 1680 nM |  | CCOc1cc(Nc2ncc(Br)c(Nc3ccc(-c4ccc(C)cn4)cc3P(C)(C)=O)n2)c(C)cc1N1CCOCC1 [Compound K-035, (2-((5-Bromo-2-((5-ethoxy-2-methyl-4-morpholinophenyl)amino)pyrimidin-4-yl)amino)-5-(5-methylpyridin-2-yl)phenyl)dimethylphosphine oxide]
